These results are taken from patent publication US5399487A, “6-peptidylamino-1-naphthalenesulfonamides useful as fluorogenic proteolytic enzyme substrates” (Haematologic Technologies, Inc., priority 1993, dated 1995).

By Km is commonly meant the substrate concentration at which the rate is half of its maximum.

Structures are written as SMILES.

Assay type in all cases: biochemical
Assay [1] deals with urokinase (u-PA) (Homo sapiens, UniProt P00749). The assay is described as follows: Fluorogenic enzyme assay (Example 5). Conditions: 100 nM enzyme, substrate 1 μM.
The target of assay [2] is tissue plasminogen activator (t-PA) (Homo sapiens, UniProt P00750). The assay is described as follows: Fluorogenic enzyme assay (Example 5). Particulars: 100 nM enzyme, substrate 1 μM. In outline: (§1)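 Initial-rate measurement of fluorogenic substrate cleavage; TBS pH 7.4, room temperature (22° C). Fluorophore detected at ex 352/em 470 nm, quantified by standard curve; Km and kcat obtained by Michaelis-Menten regression.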
tissue plasminogen activator (t-PA), sequence (P00750 36-562, species assumed): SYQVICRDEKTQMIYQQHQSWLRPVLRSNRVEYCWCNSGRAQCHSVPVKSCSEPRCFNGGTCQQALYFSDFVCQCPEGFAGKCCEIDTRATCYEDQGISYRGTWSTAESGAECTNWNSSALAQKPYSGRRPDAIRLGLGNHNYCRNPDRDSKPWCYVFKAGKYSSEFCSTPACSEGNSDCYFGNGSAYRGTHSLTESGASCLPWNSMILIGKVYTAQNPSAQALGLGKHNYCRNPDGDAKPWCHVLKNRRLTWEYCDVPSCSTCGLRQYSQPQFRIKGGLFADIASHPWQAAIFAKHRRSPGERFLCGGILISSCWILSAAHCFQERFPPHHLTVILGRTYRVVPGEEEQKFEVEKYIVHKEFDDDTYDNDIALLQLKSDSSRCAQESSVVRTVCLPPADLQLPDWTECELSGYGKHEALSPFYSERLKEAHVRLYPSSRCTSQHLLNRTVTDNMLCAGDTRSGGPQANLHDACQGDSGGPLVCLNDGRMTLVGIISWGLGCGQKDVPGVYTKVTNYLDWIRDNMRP

The target of assay [3] is plasmin (Plm) (Homo sapiens, UniProt P00747). The assay is described as follows: Fluorogenic enzyme assay (Example 5). Conditions: 10 nM enzyme, substrate 1 μM. An outline of the steps:
as §1

In assay [4] the target is T1, VIIa/Ca^2+ (Homo sapiens, UniProt P08709).
T1 construct: directly measure the enzymatic activity of factor VIIa in the presence and absence of tissue factor and phospholipid
T1 sequence (P08709 213-466 limits assumed): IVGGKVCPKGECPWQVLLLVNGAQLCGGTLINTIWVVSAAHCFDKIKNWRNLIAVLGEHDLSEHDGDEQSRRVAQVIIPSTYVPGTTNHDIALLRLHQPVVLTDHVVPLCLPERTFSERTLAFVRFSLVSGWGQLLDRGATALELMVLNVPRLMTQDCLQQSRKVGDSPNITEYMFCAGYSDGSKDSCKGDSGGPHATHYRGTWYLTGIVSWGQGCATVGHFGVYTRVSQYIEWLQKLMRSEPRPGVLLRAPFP
T1 sequence (P08709 61-212 limits assumed): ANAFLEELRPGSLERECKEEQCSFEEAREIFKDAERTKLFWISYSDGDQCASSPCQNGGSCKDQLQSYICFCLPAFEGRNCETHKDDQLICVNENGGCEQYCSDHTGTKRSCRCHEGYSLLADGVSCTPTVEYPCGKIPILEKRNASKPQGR
Put plainly: Fluorogenic factor VIIa assay (Example 6). Particulars: HBS, 37° C., 50 nM rVIIa. The method, then: (§2) Factor VII assays were conducted in 20 mM HEPES, 150 mM NaCl, 5 mM CaCl2, pH 7.4 (HBS) at 37° C. The final volume for all reactions was 1.6 ml. 6-(Mes-D-Leu-Gly-Arg)amino-1-(N,N-diethyl)naphthalenesulfonamide was dissolved in DMSO to a stock concentration of 10 mM. This 10 mM stock solution of was diluted in HBS to final working concentration prior to all assays. For reactions involving tissue factor (TF) and phospholipid vesicles, recombinant human tissue factor was solubilized in either 0.04% n-dodecyl octaethylene glycol (C12 E8) or 0.8% octyl glucoside. The TF/n-dodecyl octaethylene glycol was then relipidated into PCPS or PC vesicles by a 30 minute incubation step as described by Lawson & Mann, J. Biol. Chem. 266: 11317-11327 (1991). TF/octyl glucoside was relipidated into PC or PCPS vesicles by a thirty minute incubation step followed by exhaustive dialysis. The final concentration of tissue factor used in the studies described here ranged from 2 to 50 nM depending on the nature of the experiment.
(§3) Fifteen minutes prior to the start of all reactions factor VIIa was added to the reaction system. This incubation period was followed by the addition of substrate (1 μM to 400 μM) to the mixture to start the reaction. In experiments designed to determine kinetic constants of substrate hydrolysis, 50 nM rVIIa was used when no tissue factor was present in the reaction system, while 0.5 nM rVIIa was used when tissue factor was present in the reaction system. The rate of substrate hydrolysis was measured by change in fluorescence over time, which corresponded with the generation of the 6-amino-1-(N,N-diethyl)naphthalenesulfonamide from the provided substrate. The kinetic constants of 6-(Mes-D-Leu-Gly-Arg)amino-1-(N,N-diethyl)naphthalenesulfonamide hydrolysis as a function of factor VIIa/tissue factor complex assembly are shown in Table 10.

For assay [5], the target named is T2, VIIa/PCPS/Ca^2+ (Homo sapiens, UniProt P08709).
T2 construct: directly measure the enzymatic activity of factor VIIa in the presence and absence of tissue factor and phospholipid
T2 sequence (P08709 213-466 limits assumed): T1 sequence (P08709 213-466 limits assumed)
T2 sequence (P08709 61-212 limits assumed): T1 sequence (P08709 61-212 limits assumed)
The assay is described as follows: Fluorogenic factor VIIa assay (Example 6). Particulars: HBS, 37° C., 50 nM rVIIa. The method, then:
as §2, §3

Assay [6] addresses T3, VIIa/TF/PCPS/Ca^2+ (Homo sapiens, UniProt P08709).
T3 construct: directly measure the enzymatic activity of factor VIIa in the presence and absence of tissue factor and phospholipid
The assay is described as follows: Fluorogenic factor VIIa assay (Example 6). Conditions: HBS, 37° C., 0.5 nM rVIIa. The method, then: as §2, §3

The target in assay [7] is T4, VIIa/TF/PC/CA^2+ (Homo sapiens, UniProt P08709).
T4 construct: directly measure the enzymatic activity of factor VIIa in the presence and absence of tissue factor and phospholipid
T4 sequence (P13726 33-295 partner, one chain of several): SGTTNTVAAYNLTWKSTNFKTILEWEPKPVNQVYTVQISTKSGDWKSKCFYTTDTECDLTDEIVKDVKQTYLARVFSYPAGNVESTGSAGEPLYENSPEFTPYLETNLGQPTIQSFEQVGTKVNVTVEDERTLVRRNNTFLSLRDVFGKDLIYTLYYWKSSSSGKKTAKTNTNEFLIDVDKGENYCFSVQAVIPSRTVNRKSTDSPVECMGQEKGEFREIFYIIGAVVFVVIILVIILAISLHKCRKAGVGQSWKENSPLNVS
Put plainly: Fluorogenic factor VIIa assay (Example 6). Particulars: HBS, 37° C., 0.5 nM rVIIa. The method, then:
as §2, §3

In assay [8] the target is T5, factor VIIa (Homo sapiens, UniProt P08709).
T5 construct: directly measure the enzymatic activity of factor VIIa in the presence and absence of tissue factor and phospholipid
T5 sequence (P08709 213-466 limits assumed): T1 sequence (P08709 213-466 limits assumed)
T5 sequence (P08709 61-212 limits assumed): T1 sequence (P08709 61-212 limits assumed)
Put plainly: Fluorogenic enzyme assay, relative hydrolysis rates (Table 8). Particulars: 10 nM enzyme, substrate 1 μM. Here is the method: Enzyme assays (except factor VIIa assays, see below) were conducted in 20 mM Tris, 150 mM NaCl, pH 7.4 (TBS) at room temperature (22° C.). The final volume for all reaction mixtures was 2.0 ml. Fluorogenic substrates were dissolved in DMSO to a stock concentration of 10 mM. The 10 mM stock solution was diluted in TBS to the final working concentration prior to all assays. Enzyme was added to mixtures containing buffer components and substrate and the initial rate of substrate hydrolysis was measured as the change in fluorescent intensity over time, corresponding to the generation of the particular 6-amino-1-naphthalenesulfonamide fluorophore from the provided substrate. Quantitation of substrate hydrolysis was accomplished by establishing a standard curve from the appropriate fluorescent moiety. Fluorescence was monitored (continuously or discontinuously) using a Perkin Elmer fluorescence spectrophotometer, model MPF-44A, equipped with a standard chart recorder. The fluorophore was detected using monochrometers set at an excitation wavelength of 352 nm and an emission wavelength of 470 nm. Light scattering artifacts were minimized using a 399 nm cut off filter in the emission light beam.
as §2, §3

Assay [9] deals with T6, thrombin (IIa) (Homo sapiens, UniProt P00734).
T6 construct: 0.5 nM human thrombin (IIa)
Put plainly: Fluorogenic enzyme assay (Example 5). An outline of the steps: as §1

T3 sequence (P13726 33-295 partner, one chain of several): as above
plasmin (Plm), sequence (P00747 581-810 limits assumed, species assumed): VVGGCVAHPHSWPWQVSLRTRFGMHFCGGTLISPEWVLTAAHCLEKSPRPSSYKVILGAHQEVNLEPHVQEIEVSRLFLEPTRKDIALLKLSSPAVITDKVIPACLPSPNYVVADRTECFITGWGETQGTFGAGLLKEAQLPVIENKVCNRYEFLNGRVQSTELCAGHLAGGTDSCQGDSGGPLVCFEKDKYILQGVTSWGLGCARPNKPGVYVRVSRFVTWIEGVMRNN
plasmin (Plm), sequence (P00747 97-580 limits assumed, species assumed): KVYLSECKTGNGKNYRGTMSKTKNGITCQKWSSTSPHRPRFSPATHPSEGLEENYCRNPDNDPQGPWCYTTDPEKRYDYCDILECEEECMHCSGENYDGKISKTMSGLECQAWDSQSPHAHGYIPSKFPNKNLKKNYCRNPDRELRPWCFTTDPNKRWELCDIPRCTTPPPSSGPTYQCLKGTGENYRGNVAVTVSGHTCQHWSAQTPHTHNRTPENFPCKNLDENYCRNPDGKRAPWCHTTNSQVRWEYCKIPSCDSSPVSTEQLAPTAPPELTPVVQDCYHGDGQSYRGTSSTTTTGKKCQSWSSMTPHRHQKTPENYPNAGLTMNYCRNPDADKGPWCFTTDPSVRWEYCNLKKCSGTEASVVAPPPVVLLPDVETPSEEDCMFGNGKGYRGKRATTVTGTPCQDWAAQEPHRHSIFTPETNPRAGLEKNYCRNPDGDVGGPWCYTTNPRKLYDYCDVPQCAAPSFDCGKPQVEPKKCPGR

For the molecule `CCN(CC)S(=O)(=O)c1cccc2cc(NC(=O)[C@H](CCCNC(=N)N)NC(=O)CNC(=O)[C@@H](CC(C)C)NS(C)(=O)=O)ccc12` [MesD-LPR-ANSN(C2 H5)2, 6-(Mes-D-Leu-Gly-Arg)amino-1-(N,N-diethyl)napththalenesulfonamide], in assay [1], the “TIME TO 10% HYDROLYSIS (HOURS), u-PA” value stood at 2 h. Further, the “TIME TO 10% HYDROLYSIS (HOURS), t-PA” value in assay [2] amounted to 2 h. Further, the “TIME TO 10% HYDROLYSIS (HOURS), Plm” value in [3] was 1 h. Further, the “kcat /Km” value in assay [4] is recorded as 41.4 M^-1 S^-1; in [5], 32.6 M^-1 S^-1; in assay [6], 4166 M^-1 S^-1; in [7], 4206 M^-1 S^-1. The “kcat sec^-1 ± S.E.” value in assay [4] was determined as 0.010 ± 0.002 s⁻¹; in [5], 0.019 ± 0.003 s⁻¹; in assay [6], 0.675 ± 0.046 s⁻¹; in assay [7], 0.875 ± 0.032 s⁻¹. The Michaelis-Menten constant (Km) in assay [4] (read-out: Km μM ± S.E.) is 249 ± 88.5 µM; in [5] (read-out: Km μM ± S.E.) it was 580 ± 101 µM; in [6] (read-out: Km μM ± S.E.) it was 162 ± 16 µM; in assay [7] (read-out: Km μM ± S.E.), 208 ± 12 µM; in assay [9] (Table 9), 31.6 µM. Further, the “TIME TO 10% HYDROLYSIS (HOURS), VIIa” value in [8] was 4 h. The “TIME TO 10% HYDROLYSIS (HOURS), IIa” value in [9] (10 nM enzyme, substrate 1 μM) was 0.33 h. Further, in assay [9] (Table 9), the “kcat /Km, IIa” value was 20000 M⁻¹ s⁻¹. The “kcat, IIa” value in assay [9] (Table 9) was 0.63 s⁻¹.
